How the values were obtained:
Test in all cases: Biological Example 3 glasshouse assay using various adjuvant systems, post-emergence foliar spray
Assay type in all cases: in vivo
[1] = system: Digitaria sanguinalis (DIGSA); details: 8 g/ha
Method: (§1) Post-emergence foliar spray application, 200 L/ha, usually one or two replicates for the weeds (depending on application rate), and two replicates for soybean.
(§2) Standard warm conditions (tropical), in glasshouse. Specifically, the glasshouse bay conditions are 24° C./18° C. day/night; 16/8 hours light/dark; 65% humidity.
(§3) The herbicidal application takes place at the following growth stages for plants which include inter alia one or more of the following plants (usually the herbicidal application takes place on at least the following plants: DIGSA, ELEIN, SETFA, ZEAMX, GLXMA Nikko, and GLXMA TMG133, and often also either BRADC or BRAPP):
Digitaria sanguinalis (DIGSA)—growth stage 12 or 13
(§4) Each test compound is applied with one of the following adjuvant systems (all percentages are final concentrations in the aqueous spray mixture):
(§5) Adjuvant system 1: 0.5% v/v Adigor™ *, 1.0% v/v AMS (ammonium sulphate) and 12.5% v/v IPA (isopropyl alcohol).
(§6) Adjuvant system 1A: 0.5% v/v Adigor™ * and 12.5% v/v IPA (isopropyl alcohol).
(§7) CAS Registry no. […] A visual assessment of the % herbicidal damage is made 7 and 14 Days After herbicide Application (DAA) (or, in a minority of cases, 7 and 15 DAA), and the results are recorded as % visual herbicidal damage where 0%=no damage to plants and 100%=plant totally killed. *** Adjuvant system=either Adigor™ or Hexamoll DINCH™ or tris-(2-ethylhexyl) phosphate each at 0.5% v/v, and 12.5% v/v IPA (isopropyl alcohol), and 1.0% v/v AMS (ammonium sulphate); or 0.5% v/v Adigor™ and 12.5% v/v IPA (isopropyl alcohol); all percentages are final concentrations in the aqueous spray mixture. […]
The percentages of herbicidal damage/plant control, at 14 Days After herbicide Application (DAA) (or, in a minority of cases, at 15 DAA), for the Compounds tested and for some of the plants tested, were in the following percentage ranges. […] Phytotoxicity on Glycine max (GLXMA, Soybean) Cultivar “TMG133” Glycine max (GLXMA, soybean) cultivar “TMG133” is Roundup Ready™ glyphosate-tolerant soybean cultivar TMG133, and is typically available from Monsanto in Brazil. […]

[2] = system: Eleusine indica (ELEIN); details: 8 g/ha
Method: as §1, §2, §3
Eleusine indica (ELEIN)—growth stage 12 or 13
as §4, §5, §6, §7
The percentages of herbicidal damage/plant control, at 14 Days After herbicide Application (DAA) (or, in a minority of cases, at 15 DAA), for the Compounds tested and for some of the plants tested, were in the following percentage ranges. […] Phytotoxicity on Glycine max (GLXMA, Soybean) Cultivar “TMG133” Glycine max (GLXMA, soybean) cultivar “TMG133” is Roundup Ready™ glyphosate-tolerant soybean cultivar TMG133, and is typically available from Monsanto in Brazil.

[3] = system: Glycine max (GLXMA, soybean) cultivar Nikko; details: for percentage phytotoxicity on Glycine max (GLXMA, soybean) cultivar Nikko: post-emergence
Method: as §1, §2, §3
Glycine max (GLXMA, soybean) cultivar “Nikko”—growth stage: 1st trifoliate
as §4, §5, §6
CAS Registry no. 166412-78-8), and is usually available from BASF. “Isononyl” in this context is thought to mean a mixture of two or more branched isomers of C9H19. Method: Seeds of the weed (including volunteer) plants, typically including inter alia Digitaria sanguinalis (DIGSA), Eleusine indica (ELEIN), Setaria faberi (SETFA), Zea mays (ZEAMX, corn), and sometimes also [either Brachiaria decumbens (BRADC) or Brachiaria platyphylla (BRAPP)], are sown in seed trays (troughs) containing clay loam soil (pH 7.0, 2.2% organic matter, “Trough Mix A”); and soybean seed is sown in pots containing the same soil with 3 soybean seedlings per pot. The plants are sprayed with the test herbicide when they reach the growth stages mentioned above. The test herbicidal solutions are prepared by mixing the appropriate aliquots of the test substance(s) and one of the adjuvant systems indicated above *** in deionised water to give the desired treatment concentration. The herbicidal application is made as a foliar spray, using a tracksprayer. Following the herbicidal application, the plants are watered twice per day for the duration of the test. A visual assessment of the % herbicidal damage is made 7 and 14 Days After herbicide Application (DAA) (or, in a minority of cases, 7 and 15 DAA), and the results are recorded as % visual herbicidal damage where 0%=no damage to plants and 100%=plant totally killed. *** Adjuvant system=either Adigor™ or Hexamoll DINCH™ or tris-(2-ethylhexyl) phosphate each at 0.5% v/v, and 12.5% v/v IPA (isopropyl alcohol), and 1.0% v/v AMS (ammonium sulphate); or 0.5% v/v Adigor™ and 12.5% v/v IPA (isopropyl alcohol); all percentages are final concentrations in the aqueous spray mixture.
Compounds A8, A11 and A17, which are compounds of formula (I) according to the present invention, were tested in a test method substantially as described above.
Compound A8 was tested using the 0.5% v/v Adigor™+12.5% v/v IPA adjuvant system. Compounds A11 and A17 were tested using the 0.5% v/v Adigor™+1.0% v/v AMS+12.5% v/v IPA adjuvant system.
The percentages of herbicidal damage/plant control, at 14 Days After herbicide Application (DAA) (or, in a minority of cases, at 15 DAA), for the Compounds tested and for some of the plants tested, were in the following percentage ranges. At least for Compounds A8 and A17, the phytotoxicity results shown herein are the average of 2 repetitions (for the grassy weeds, corn and soybean). […] Control of Zea mays (ZEAMX, Corn), a Warm-Climate (Warm-Season) Grassy Plant Zea mays (ZEAMX, maize, corn) is often present as a “volunteer” weed (“volunteer” corn) in fields where it was planted as a crop in preceding growing season(s) and where the present field crop is not corn. […]

[4] = 14 DAA, adjuvant 0.5% v/v Adigor + 12.5% v/v IPA
[5] = 14 DAA (A11: 14 or 15 DAA), adjuvant 0.5% v/v Adigor + 1.0% v/v AMS + 12.5% v/v IPA

Structure (SMILES) | percentage control of (phytotoxicity on) Digitaria sanguinalis (DIGSA) [1, 4] | percentage control of (phytotoxicity on) Eleusine indica (ELEIN) [2, 4] | percentage phytotoxicity on Glycine max (GLXMA, soybean) cultivar Nikko ([3]; 120 g/ha, 14 DAA, adjuvant 0.5% v/v Adigor + 12.5% v/v IPA) | phytotoxicity on soybean (in words) ([3]; see Biological Example 3 (soybean cultivars Nikko and TMG133)) | percentage control of Digitaria sanguinalis (DIGSA) [1, 5] | percentage control of Eleusine indica (ELEIN) [2, 5] | percentage phytotoxicity on Glycine max (GLXMA, soybean) cultivar Nikko ([3]; 120 g/ha, 14 DAA (A11: 14 or 15 DAA), adjuvant 0.5% v/v Adigor + 1.0% v/v AMS + 12.5% v/v IPA) | percentage phytotoxicity on Glycine max (GLXMA, soybean) cultivar Nikko ([3]; 240 g/ha, 14 DAA (A11: 14 or 15 DAA), adjuvant 0.5% v/v Adigor + 1.0% v/v AMS + 12.5% v/v IPA)
C#CCC1CC(=O)C(c2c(F)cc(C#CC)cc2OC)C1=O (centres unmarked) [Compound A8, 2-(2-fluoro-6-methoxy-4-prop-1-ynyl-phenyl)-4-prop-2-ynyl-cyclopentane-1,3-dione] | 65% | 40% | 30% | low phytotoxicity | – | – | – | –
CC#Cc1cc(F)c(C2C(=O)CC(CCSC)CC2=O)c(OC)c1 (centres unmarked) [Compound A11] | – | – | – | – | 0% | 0% | 5% | 5%

— patent publication US10696686B2, “Herbicidally active (alkynyl-phenyl)-substituted cyclic dione compounds and derivatives thereof” (Syngenta Limited, priority 2013, dated 2020)
